The source of these data is patent US20170035787A1, “Fixed Dose Combination for Pain Relief Without Edema” (Autotelic LLC, priority 2014, published 2017).

“And” between values parts separate entries of the source, which are not always exact repeats. Equal values may be shown once. “Also recorded” adds a separate entry of the source.

The nature of data set [1]: Combined plots and meta analysis of published celecoxib pharmacokinetic data. It counts as in vivo, human. The text has this: In other words, the most efficacious celecoxib dosage is not well defined among the elderly. The problem may be more widespread than expected as elderly here is defined as patients greater than >40 or >50, not the usually definition of elderly (age greater >65).

For data set [2] the following is noted: in vivo.
The conditions of data set [3]: cited from earlier work.
The conditions of data set [4]: CELEBREX Package Insert table; cited from earlier work.
Data set [5] can be described thus: Applicant's meta analysis of reported edema rates in osteoarthritic populations by celecoxib dose.

Take `Cc1ccc(-c2cc(C(F)(F)F)nn2-c2ccc(S(N)(=O)=O)cc2)cc1` [celecoxib]: in data set [1] (FIG. 2, listed as CELEBREX®), the “variability of pharmacokinetics; 100 mg vs 200 mg dose PK results” value is recorded as “unexpectedly high; also recorded: substantial overlap”. Moreover, in data set [1] (age-based subgroups, FIG. 3), the “drug exposure as defined by AUC, elderly vs younger patients” value is “highly significant differences”. The “% Edema” value in data set [2] (human) was determined as 20%. In data set [2], the “effect of anti-hypertensive class on incidence of edema in patients taking CELEBREX” value is recorded as “steady increase in incidence of edema”; the “incidence of edema in patients taking CELEBREX with or without diuretic” value is “steady increase in incidence of edema”; the “incidence of edema with vs without CELEBREX by arthritis group” value was “increased when patients was taken CELEBREX® for all groups except for RA and no Arthritis free patients”. Besides, the incidence of edema in data set [3] (two trials with much higher incidence) is 23% and 38%. For the same molecule, the “incidence of edema at any site” value in data set [3] (usual incidence in clinical trials of celecoxib) was “about 3%”. For the same molecule, the “patients treated who develop edema” value in data set [4] is 2.1%. Moreover, the “upper limit and average edema event rate” value in data set [5] (400 mg/day vs 100 or 200 mg/day) is recorded as “more than twice as high”. Further, the edema event rates entry in data set [5] (100 vs 200 mg/day dose) is listed as “remarkably similar edema event rates”.

Take `COc1ccc2cc([C@H](C)C(=O)O)ccc2c1` [naproxen]: in data set [4], the “patients treated who develop edema” value is 2.1%.

`CC(C)Cc1ccc(C(C)C(=O)O)cc1` (centres unmarked) [ibuprofen]: the “patients treated who develop edema” value in data set [4] is reported as 3.5%.

As to `O=C(O)Cc1ccccc1Nc1c(Cl)cccc1Cl` [diclofenac], in data set [4], the “patients treated who develop edema” value is 1.0%.
